Measurements published in publication PMC3115942 (PLoS ONE, 2011).

Legend:
THLE-2 cells = assay: Passage growth assay, THLE-2; assay type: cell-based; conditions: 5 µM
Experimental: (§1) 20,000 cells were seeded per well in 6 well plates (triplicates) with DMSO or 5 µM MS-0022. Treatment medium was changed on day 3–5, and after 5–7 days the cells were trypsinized, re-suspended in medium and counted, before reseeding cells at 20,000/well for a subsequent passage. The average growth of MS-0022 treated cells was calculated as a percentage of the growth of the DMSO control at the end of each passage. Graphs display average of percent growth with standard deviation bars (n = 3).

SUIT-2 xenograft = assay: SUIT-2 subcutaneous xenograft in CB17/SCID mice; assay type: in vivo
[1] = test system: Gli1 protein in Sufu−/− MEF; assay: Gli1 immunostaining of Sufu−/− MEF; assay type: cell-based, mouse; conditions: 20 µM, 48 hours
[2] = test system: Wnt signaling in HEK293 cells; assay: Wnt luciferase reporter assay (SuperTop-luc) in HEK293; assay type: cell-based; conditions: HEK293, 10 and 20 µM, 24 hours
Experimental: (§2) Vectors were obtained from the following: GliBS-Luc reporter (gift from H. Sasaki), pBluescript (pBS) (Stratagene), FL-HA-GLI1 (Gli1) and Gli2-GFP (Gli2) (gifts from R. Toftgård), Super8XTOPFlash, and NFkB-luc (Panomics). 10 ng renilla luciferase (pRL-TK) (Promega) was used as a transfection control. HEK293 and NIH3T3 cells were seeded at 80,000 per well in 48-well plates on day 1, and were co-transfected on day 2 using a total of 0.4 µg plasmid per well mixed at 1∶3 in FUGENE6 according to manufacturer^'s instructions. On day 3, control medium and activating medium (50% L1 conditioned medium, 50% Shh conditioned medium or medium containing 10 ng/mL recombinant rcrTNF-α (R&D Systems)) +/− 10–20 µM MS-0022 were added, using DMSO as a control (the NFkB pathway inhibitor Bay11-7082 was used as a control in the NFkB assay). Samples were analyzed on day 4 or 5 using the Dual Luciferase assay kit according to manufacturer^'s instructions. Graphs display relative or fold reporter activity, and are calculated from a mean ratio of firefly reporter luminescence/pRL-TK luminescence with standard deviation error bars (n = 3). The experiments have been repeated with similar results.

[3] = test system: PANC-1, SUIT-2, PC-3 and FEMX cells; assay: In vitro antiproliferative assay (MTS), tumor cell lines; assay type: cell-based, human; conditions: 10 µM, 4 day exposure; across PANC-1, SUIT-2, PC-3 and FEMX
Experimental: Cells were plated at a density of 3000 (THLE-2 and PC-3) and 1000 (PANC-1, SUIT-2 and FEMX) cells per well (on the basis of their growth rate) in 200 µl of medium in a 96-well plate. Medium was changed daily, and after four days, the assay was read using a MTS kit (Promega) according to the instructions of the manufacturer. Graphs display average of percent growth with standard deviation (n = 8).

[4] = test system: Gli1 or Gli2 (GliBS-Luc, NIH3T3 cells); assay: GliBS-Luc reporter in NIH3T3 cells with forced Gli1 or Gli2 expression; assay type: cell-based; conditions: 10 µM, 48 hours
Experimental: as §2

PANC-1 cells = assay: Passage growth assay, PANC-1; assay type: cell-based, human; conditions: 5 µM, passages of 5–7 days
Experimental: as §1

SUIT-2 cells = assay: Passage growth assay, SUIT-2; assay type: cell-based, human; conditions: 5 µM, passage 2 and 3
Experimental: as §1

GLI1 mRNA in PC-3 cells = assay: Real time PCR of GLI1 mRNA in PC-3; assay type: cell-based, human; conditions: 48 hrs
Experimental: (§3) Cells were lysed for RNA extraction after 48 or 72 hours of treatment. Total RNA from cultured cells or tumor tissue was isolated using the GeneElute miniprep kit (Sigma-Aldritch) following the manufacturer^'s instructions. cDNA was synthesized from the isolated mRNA using the Retroscript kit (Ambion), and real-time PCR was carried out using the SYBR Green PCR master mix (Stratagene) according to the manufacturer^'s instructions with an Mx3000P cycler (Stratagene). The relative concentrations of cDNA present in each sample were calculated by the MxPro software (Stratagene), normalized for GAPDH (mRNA from cells) or GUS (mRNA from tumors). For real time PCR primer sequences see Table 6. For the tumor tissue real time PCR, previously described human and mouse specific primers against GUSB, PTCH1 and GLI1were used.

Dose tolerance in mice = assay type: in vivo
Experimental: MS-0022 tolerance was tested by daily injections of 200 mg/kg MS-0022 for 5 days in 7–8 week old male C57BL mice. Animal were observed daily for outward signs of toxicity (weight loss, fur ruffling, hunched posture).

PC-3 cells = assay: Passage growth assay, PC-3; assay type: cell-based, human; conditions: 5 µM, passages of 5–7 days
Experimental: as §1

[5] = test system: Gli1 mRNA expression in Sufu−/− MEF; assay: Real time PCR of Gli1 mRNA in Sufu−/− MEF; assay type: cell-based, mouse; conditions: 10 µM, 72 hours
Experimental: as §3

[6] = test system: ciliary accumulation of Smo in Ptch−/− MEF; assay: Immunostaining of Smo in primary cilia of Ptch−/− MEF; assay type: cell-based, mouse; conditions: 5 µM, 24 hours
Experimental: PTCH−/− MEF were seeded on pre-coated glass slides (1 hour coating with 0.1% Gelatin (G1393) and 0.003% Collagen (C8919) (Sigma-Aldrich) in PBS). 80% confluent cells were switched from 10% to 0.5% FBS in medium and cells were treated with DMSO or 5 µM MS-0022 for 24 hours in (n = 3) before subsequent immunofluorescent staining: Slides were fixed with 4% paraformaldehyde (Sigma-Aldrich), permeabilized for 10 min in 0.1% v/v Triton X-100 (Sigma-Aldrich) in PBS (PBT), and blocked with 10% w/v BSA (Saveen Werner) in PBT for 1 hour. Primary antibodies, mouse anti-acetylated tubulin (a-Tub) (Sigma-Aldrich (T7451), 1∶1000) goat anti-Smo (Santa Cruz Biotechnology (sc-6367), 1∶1000), and goat anti-GLI-1 (RnD systems (AF3455), 1∶500) were diluted in 0.5% w/v BSA in PBT and left on the slides over night at 4°C. Secondary antibodies donkey anti-goat IgG-Alexa 594 and donkey anti-mouse IgG-Alexa 488 (Invitrogen, both at 1∶500) were added in 0.5% w/v BSA in PBT for 1 hour. The slides were counterstained with DAPI (Roche, 1 mg/ml) in PBS. 3 random regions were imaged pr slide using a confocal LSM510 microscope (Carl Zeiss MicroImaging). The ratio of […] positive cilia was quantified manually or processed and analyzed using ImageJ to quantify the intensity of Smo and aTub for each cilium in the images (http://rsb.info.nih.goc/ij/). […]

[7] = 50 mg/kg daily PO, 18 days, vs control group

Cc1cccn2cc(-c3ccc(NC(=O)c4ccccc4Br)cc3)nc12 [MS-0022, 2-bromo-N-(4-(8-methylimidazo[1,2-a]pyridin-2-yl)phenyl)benzamide]
growth by the second passage, THLE-2 (THLE-2 cells): not affected | animal weight, SUIT-2 xenograft mice (SUIT-2 xenograft; 50 mg/kg daily PO): unaffected | outwards signs of toxicity, SUIT-2 xenograft mice (SUIT-2 xenograft; 50 mg/kg daily PO): did not result in any outwards signs of toxicity | reduction in tumor volume, SUIT-2 xenograft (SUIT-2 xenograft; [7]): 27% | reduction in tumor weight, SUIT-2 xenograft (SUIT-2 xenograft; [7]): 36% | mouse (stromal) Gli1 mRNA in SUIT-2 tumors (SUIT-2 xenograft; after 7 days of treatment, 50 mg/kg PO, 50 mg/kg): reduced significantly | human or mouse Gli1, or Ptch1 mRNA levels in SUIT-2 tumors (SUIT-2 xenograft; endpoint of the experiment (18 days), 50 mg/kg PO): no statistical relevant reduction | ratio of nuclear versus cytoplasmic Gli1 [1]: did not alter the ratio | total level of Gli1 in the cells [1]: the total level of Gli1 in the cells was reduced | L1 medium induced Wnt signaling [2]: did not significantly block | growth reduction (MTS) [3]: 40%–70% | inhibition of Gli1 or Gli2 when pathway further activated by Shh ([4]; 50% Shh conditioned medium): partial inhibition | Hh pathway inhibitory effect at the level of forced Gli1 or Gli2 expression ([4]; without Shh): not detected | growth reduction after passage 2, PANC-1 (PANC-1 cells): 80% | serial passage growth reduction, SUIT-2 (SUIT-2 cells): not significant | GLI1 mRNA levels, PC-3 (GLI1 mRNA in PC-3 cells): reduced GLI1 mRNA levels | outward signs of toxicity or other side effects (Dose tolerance in mice; 200 mg/kg daily for 5 days): did not show any outward signs of toxicity | alterations in body weight (Dose tolerance in mice; daily IP injections of 200 mg/kg for 5 days): No statistically significant alterations | MTD at 5 days (Dose tolerance in mice; male, C57BL, mouse, in vivo, intraperitoneal, 200 mg/kg, mice): > 200 mg/kg | growth reduction after passage 2, PC-3 (PC-3 cells): 80% | reduction of relative Gli1 mRNA levels in Sufu−/− MEFs [5]: 50% | ciliary accumulation of Smo [6]: effectively blocked ciliary accumulation of Smo
